From patent US20260265199A1, “CRYSTALLINE FORMS OF (R)-2-AMINO-5-(4-(2-(3,5-DIFLUOROPHENYL)-2-HYDROXYACETAMIDO)-2-METHYLPHENYL)-N-ISOPROPYLNICOTINAMIDE AND METHODS FOR USING THE SAME” (HIBERCELL, INC., priority 2023, published 2026)
Structures can show the parent of a compound that is named as a salt. Where two headings read alike, the source gives them in different places.

Assay: Phase 1a study: pharmacokinetics after oral BID dosing in subjects with advanced solid tumors
Type: in vivo, human
Conditions: for Tmax / Cmax / half-life / AUC(0-t) / Vd/F / AUC(0-inf) / AUC: human, in vivo; for Vd/F: read-out: Vz/F; for AUC: read-out: AUC0-τ
Protocol: This example describes a first in human, Phase 1a, multi-center, open-label study to establish the maximum tolerated dose (MTD) and evaluate the safety and tolerability of oral dosing of Form A of the hemi-fumarate salt of the compound of formula (I) (Example 11) in a dose-escalating fashion. Form A of the hemi-fumarate salt was orally administered BID every day with food or within 30 minutes of completing a meal, starting at 25 mg, with doses escalating to 50, 100, 200, 400, 600, and 900 mg BID as safety allows for each 3-week treatment cycle.
Up to 36 qualified subjects at 3 to 5 US sites, who have specific tumor types of renal cell carcinoma (RCC), gastric cancer (GC), metastatic breast cancer (MBC), small cell lung cancer (SCLC), and other solid tumors (e.g., non-small cell lung cancer, colorectal cancer, carcinoma of unknown primary) with the exception of rapidly progressing neoplasms (e.g., pancreatic cancer, glioblastoma, hepatocellular carcinoma) received Form A of the hemi-fumarate salt. Every effort was made to ensure approximately 50% of all subjects enrolled were subjects with RCC and GC. The starting dose level was 25 mg twice daily (BID), escalating to 50, 100, and 200 mg BID as safety allows, following the Bayesian Optimal Interval (BOIN) design. The safety monitoring committee (SMC) evaluated the dose-limiting toxicities (DLTs) and cumulative safety and PK data at the end of each cohort. Based on the SMC recommendations after a comprehensive review of PK and safety data for 200 mg BID dose, higher dose levels were evaluated, starting with 400 mg BID. The dose escalated to 600 mg and then 900 mg following the BOIN design starting with 1 subject at each escalated dose, until the MTD was reached or the sponsor or SMC declares the dose most appropriate for clinical development. This Phase 1a will be expanded into a Phase 1b/2a study through a protocol amendment and will then assess the dose and tumor type(s) selected in Phase 1a as the most appropriate for further clinical development. Subjects were dosed until unacceptable toxicity, disease progression per immune-related Response Evaluation Criteria in Solid Tumors (iRECIST), subject withdrawal, any other administrative reasons, or after 2 years of treatment, whichever occurs first. Efficacy was assessed via Response Evaluation Criteria in Solid Tumors 1.1 (RECIST 1.1); computed tomography (CT) scans were conducted every 6 weeks. Safety, including occurrence of dose-limiting toxicities (DLTs), pharmacokinetics (PK), and biomarker parameters were also assessed.
Form A of the hemi-fumarate salt was orally administered BID with food or within 30 minutes of completing a meal, starting at 25 mg, with doses escalating to 50, 100, 200, 400, 600 and 900 mg BID as safety allowed. Up to 24 subjects were enrolled to ensure 12 subjects completed the study at the estimated MTD of Form A of the hemi-fumarate salt. Dosing occurred in 3-week cycles. Subjects spent Cycle 1/Day 1 (C1D1) in the clinic followed by an overnight stay for safety monitoring and PK sampling. Subjects were hospitalized for administration of first 3 doses: CID1 am and pm doses, and Cycle 1/Day 2 (C1D2) am dose; on Days 8, 15, and 21 the am dose was taken in the clinic after the planned PK samples. All other doses were self administered at home.
Results of Cohorts 1 to 6 the study are detailed in Tables 47-50 below.

[1] = po, 300 mg, 300 mg single oral dose, Cycle 1 Day 1, geometric mean, N = 4
[2] = po, 300 mg, 300 mg twice daily oral, Cycle 1 Day 21, point estimate, N = 1
[3] = po, 400 mg, 400 mg single oral dose, Cycle 1 Day 1, geometric mean, N = 3
[4] = po, 600 mg, 600 mg single oral dose, Cycle 1 Day 1, point estimate, N = 1
[5] = po, 600 mg, 600 mg twice daily oral, Cycle 1 Day 21, point estimate, N = 1

Cc1cc(NC(=O)[C@H](O)c2cc(F)cc(F)c2)ccc1-c1cnc(N)c(C(=O)NC(C)C)c1 [Form A of the hemi-fumarate salt, (R)-2-amino-5-(4-(2-(3,5-difluorophenyl)-2-hydroxyacetamido)-2-methylphenyl)-N-isopropylnicotinamide]
Tmax (po, 200 mg, 200 mg twice daily oral, Cycle 1 Day 21, median, N = 4): 5 h | Cmax [1]: 1140 ng/mL | half-life (po, 300 mg, 300 mg single oral dose, Cycle 1 Day 1, geometric mean, N = 4, interpret with caution, terminal elimination phase not well captured, read-out: t1/2 (converted)): 6.88 h | AUC(0-t) (po, 300 mg, 300 mg single oral dose, Cycle 1 Day 1, geometric mean, N = 4, read-out: AUC0-12): 8610 ng·h/mL | AUC(0-t) (po, 300 mg, 300 mg single oral dose, Cycle 1 Day 1, geometric mean, N = 4, read-out: AUC0-last): 8610 ng·h/mL | Vd/F [1]: 619 L | Tmax (po, 300 mg, 300 mg single oral dose, Cycle 1 Day 1, median, N = 4): 7 h | Cmax [2]: 3030 ng/mL | Tmax [2]: 8 h | AUC(0-t) (po, 300 mg, 300 mg twice daily oral, Cycle 1 Day 21, point estimate, N = 1, read-out: AUC0-last): 28400 ng·h/mL | Cmax [3]: 649 ng/mL | half-life (po, 400 mg, 400 mg single oral dose, Cycle 1 Day 1, geometric mean, N = 3, interpret with caution, terminal elimination phase not well captured, read-out: t1/2 (converted)): 6.79 h | AUC(0-t) (po, 400 mg, 400 mg single oral dose, Cycle 1 Day 1, geometric mean, N = 3, read-out: AUC0-12): 3830 ng·h/mL | AUC(0-t) (po, 400 mg, 400 mg single oral dose, Cycle 1 Day 1, geometric mean, N = 3, read-out: AUC0-last): 3830 ng·h/mL | Vd/F [3]: 240 L | Tmax (po, 400 mg, 400 mg single oral dose, Cycle 1 Day 1, median, N = 3): 2 h | half-life (po, 400 mg, 400 mg twice daily oral, Cycle 1 Day 21, N = 2, interpret with caution, terminal elimination phase not well captured, read-out: t1/2 (converted)): 10.8 h | Vd/F (po, 400 mg, 400 mg twice daily oral, Cycle 1 Day 21, N = 2): 122 L | Cmax (po, 400 mg, 400 mg twice daily oral, Cycle 1 Day 21, geometric mean, N = 2): 3680 ng/mL | AUC(0-t) (po, 400 mg, 400 mg twice daily oral, Cycle 1 Day 21, geometric mean, N = 2, read-out: AUC0-last): 30800 ng·h/mL | half-life (po, 400 mg, 400 mg twice daily oral, Cycle 1 Day 21, geometric mean, N = 2, read-out: t1/2, eff (converted)): 38.5 h | Tmax (po, 400 mg, 400 mg twice daily oral, Cycle 1 Day 21, median, N = 2): 2.5 h | Cmax [4]: 1460 ng/mL | Tmax [4]: 2 h | AUC(0-t) (po, 600 mg, 600 mg single oral dose, Cycle 1 Day 1, point estimate, N = 1, read-out: AUC0-12): 11600 ng·h/mL | AUC(0-t) (po, 600 mg, 600 mg single oral dose, Cycle 1 Day 1, point estimate, N = 1, read-out: AUC0-last): 11600 ng·h/mL | Cmax [5]: 5990 ng/mL | Tmax [5]: 12 h | AUC(0-t) (po, 600 mg, 600 mg twice daily oral, Cycle 1 Day 21, point estimate, N = 1, read-out: AUC0-last): 60800 ng·h/mL | half-life (po, 600 mg, 600 mg twice daily oral, Cycle 1 Day 21, point estimate, N = 1, read-out: t1/2, eff (converted)): 39.1 h | AUC(0-inf) (25 mg single oral dose, Cycle 1 Day 1, geometric mean, N = 3): 2200 ng·h/mL | AUC (25 mg twice daily oral, Cycle 1 Day 21, geometric mean, N = 3): 4110 ng·h/mL | AUC(0-inf) (50 mg single oral dose, Cycle 1 Day 1, geometric mean, N = 3): 5650 ng·h/mL | AUC (50 mg twice daily oral, Cycle 1 Day 21, geometric mean, N = 3): 9070 ng·h/mL | AUC (100 mg twice daily oral, Cycle 1 Day 21, geometric mean, N = 3): 11700 ng·h/mL | AUC(0-inf) (200 mg single oral dose, Cycle 1 Day 1, geometric mean, N = 5): 18000 ng·h/mL | AUC (200 mg twice daily oral, Cycle 1 Day 21, geometric mean, N = 4): 27200 ng·h/mL | AUC(0-inf) (300 mg single oral dose, Cycle 1 Day 1, geometric mean, N = 4): 4810 ng·h/mL | AUC (300 mg twice daily oral, Cycle 1 Day 21, point estimate, N = 1): 28400 ng·h/mL | half-life (300 mg twice daily oral, Cycle 1 Day 21, point estimate, N = 1, read-out: t1/2, eff (converted)): 19.4 h | AUC(0-inf) (400 mg single oral dose, Cycle 1 Day 1, geometric mean, N = 3): 16300 ng·h/mL | AUC (400 mg twice daily oral, Cycle 1 Day 21, geometric mean, N = 2): 51200 ng·h/mL | AUC (600 mg twice daily oral, Cycle 1 Day 21, point estimate, N = 1): 60800 ng·h/mL | Exposure versus dose (oral BID with food, 25 mg to 600 mg dose range, subjects with advanced solid tumors): increased roughly proportional to the increase in dose | Time to steady-state (oral BID, based on similar trough concentrations on Cycle 1, Days 8, 15 and 21): achieved by Cycle 1, Day 8
